Results as given in patent US9910044B2, “Methods for identifying arthropod repellents based on modulation of specific ionotropic receptors, and compounds and compositions identified by such methods” (The Regents of the University of California, priority 2013, dated 2018).
Read-outs that look alike come from different tables or passages of the source.

What was measured:
Drosophila [1] = assay type: in vivo, Drosophila melanogaster
Drosophila [2] = assay: Drosophila olfactory avoidance assay, 2-choice trap; assay type: in vivo, Drosophila melanogaster
Experimental: For each trial, three- to six-day old flies (10 males and 10 females) were starved for 18 hours. Flies were transferred to a cylindrical 38.1 mm D×84.1 mm H chamber containing two traps each fashioned from an upturned 1.5 ml microcentrifuge tube with 2 mm removed from the tapered end. A pipette tip (1000 μl), was cut 2.5 cm from narrow end and 0.5 cm from top and inserted into the bottom of the inverted microcentrifuge tube. A 15 mm×16 mm #1 Whatmann filter paper was inserted in between the pipette tip and tip of microcentrifuge tube in a manner that entering flies cannot make physical contact with it. With reference to FIG. 2A, for the 1-choice test, a 50 μl sample of test odorant (50% DEET in DMSO) was applied to filter paper and 125 μl of 10% apple cider vinegar (ACV) is applied to the upturned lid of the microcentrifuge tube as attractant. With reference again to FIG. 2A, for the 2-choice test, two 10% ACV lured traps were placed in the cylinder, one with DMSO as the solvent (right) and another with DEET (left).

[3] = biological target: human acetylcholinesterase (Homo sapiens, UniProt P22303); details: Corbel et al., BMC Biol, 7, 2009; cited from earlier work
[4] = tested on: mammalian cation channels; details: cited from earlier work

human acetylcholinesterase, sequence (P22303 32-614): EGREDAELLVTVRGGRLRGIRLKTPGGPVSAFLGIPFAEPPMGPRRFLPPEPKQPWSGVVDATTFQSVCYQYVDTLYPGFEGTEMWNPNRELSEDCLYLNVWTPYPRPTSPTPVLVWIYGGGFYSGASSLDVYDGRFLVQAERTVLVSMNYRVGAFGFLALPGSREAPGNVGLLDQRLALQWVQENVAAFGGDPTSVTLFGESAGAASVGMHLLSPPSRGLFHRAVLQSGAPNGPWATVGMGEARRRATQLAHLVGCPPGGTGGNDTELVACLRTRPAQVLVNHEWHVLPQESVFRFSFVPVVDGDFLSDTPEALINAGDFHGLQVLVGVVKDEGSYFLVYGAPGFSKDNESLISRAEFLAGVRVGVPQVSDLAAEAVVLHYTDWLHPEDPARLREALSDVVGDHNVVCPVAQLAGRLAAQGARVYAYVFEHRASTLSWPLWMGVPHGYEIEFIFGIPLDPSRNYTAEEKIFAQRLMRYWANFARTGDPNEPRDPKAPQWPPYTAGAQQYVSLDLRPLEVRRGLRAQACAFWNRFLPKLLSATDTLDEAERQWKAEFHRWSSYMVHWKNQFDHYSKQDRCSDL

Compound: CCN(CC)C(=O)c1cccc(C)c1 [DEET, N,N-Diethyl-m-toluamide]
- avoidance of DEET-treated trap (Drosophila [1]; Ir25a neuron-TNTG flies (Ir25a-Ga14/UAS-TNTG), 10% ACV lure): substantially decreased
- avoidance of DEET-treated trap (Drosophila [1]; Ir40a neuron-TNTG flies (Ir40a-Ga14/UAS-TNTG), versus controls, 10% ACV lure): substantially decreased
- avoidance of DEET-treated trap (Drosophila [1]; control flies Ir25a-Ga14/UAS-IMPTV, 10% ACV lure): observed to avoid DEET
- avoidance of DEET-treated trap (Drosophila [1]; control flies Ir40a-G4/+ and UAS-TNTG/+, 10% ACV lure): observed to avoid DEET
- avoidance of DEET-treated trap (Drosophila [1]; in vivo): observed to avoid DEET
- olfactory avoidance to DEET (Drosophila [1]; in vivo): nearly abolished
- avoidance response to volatile DEET (Drosophila [2]; Ir40a neuron-silenced flies (Ir40a-promoter-Ga14, UAS-kir), 10% ACV lure): avoidance was observed to be lost
- DEET avoidance (Drosophila [2]; Ir40a-RNAi flies (Ir40a-G4 with UAS-Ir40a-RNAi) compared to control flies, 10% ACV lure): loss of DEET avoidance
- olfactory DEET avoidance (Drosophila [2]; Ir93a-/- and Ir25a receptor mutant flies, FIG. 6B): found to be involved in olfactory DEET avoidance
- olfactory avoidance to DEET (Drosophila [2]; two DGRP lines with mutations in Ir40a (RAL-158, RAL-272), DEET 50% in DMSO, 10% ACV lure): nearly abolished
- avoidance response to volatile DEET (Drosophila [2]; two control lines of the Ir40a-promoter-Ga14/UAS-kir experiment, 10% ACV lure): robust and reproducible avoidance response
- avoidance response to volatile DEET (Drosophila [2]; wild-type Canton-S, DEET 50% in DMSO, 10% ACV lure): robust and reproducible avoidance response
- inhibition of human acetylcholinesterase [3]: inhibit
- inhibition of mammalian cation channels [4]: inhibit
